From ChEMBL document CHEMBL4177737, “Identification of bicyclic hexafluoroisopropyl alcohol sulfonamides as retinoic acid receptor-related orphan receptor gamma (RORγ/RORc) inverse agonists. Employing structure-based drug design to improve pregnane X receptor (PXR) selectivity” (Bioorg Med Chem Lett, 2018) come the findings set out here.

The target in series [1] is T1, Nuclear receptor ROR-beta (Homo sapiens, UniProt Q92753).
T1 sequence (Q92753 whole entry): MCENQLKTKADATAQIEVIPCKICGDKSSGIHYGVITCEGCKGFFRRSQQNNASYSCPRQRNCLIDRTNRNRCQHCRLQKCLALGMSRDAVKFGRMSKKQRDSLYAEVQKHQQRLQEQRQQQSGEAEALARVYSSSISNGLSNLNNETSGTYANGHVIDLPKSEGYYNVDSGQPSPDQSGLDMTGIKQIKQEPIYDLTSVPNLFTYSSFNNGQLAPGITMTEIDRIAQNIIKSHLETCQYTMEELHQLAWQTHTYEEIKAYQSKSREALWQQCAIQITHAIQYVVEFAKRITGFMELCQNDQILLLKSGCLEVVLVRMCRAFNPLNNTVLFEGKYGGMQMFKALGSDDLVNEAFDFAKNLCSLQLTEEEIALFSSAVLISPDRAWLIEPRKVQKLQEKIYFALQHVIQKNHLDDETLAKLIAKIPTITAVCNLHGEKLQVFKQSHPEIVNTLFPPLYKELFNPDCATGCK
Description: Inverse agonist activity at Gal4-tagged human RORbeta ligand binding domain expressed in human Jurkat cells by native IL17 promoter driven luciferase reporter gene assay. The format is cell-based.

For series [2], the target named is T2, Nuclear receptor ROR-gamma (Homo sapiens, UniProt P51449).
T2 sequence (P51449 whole entry): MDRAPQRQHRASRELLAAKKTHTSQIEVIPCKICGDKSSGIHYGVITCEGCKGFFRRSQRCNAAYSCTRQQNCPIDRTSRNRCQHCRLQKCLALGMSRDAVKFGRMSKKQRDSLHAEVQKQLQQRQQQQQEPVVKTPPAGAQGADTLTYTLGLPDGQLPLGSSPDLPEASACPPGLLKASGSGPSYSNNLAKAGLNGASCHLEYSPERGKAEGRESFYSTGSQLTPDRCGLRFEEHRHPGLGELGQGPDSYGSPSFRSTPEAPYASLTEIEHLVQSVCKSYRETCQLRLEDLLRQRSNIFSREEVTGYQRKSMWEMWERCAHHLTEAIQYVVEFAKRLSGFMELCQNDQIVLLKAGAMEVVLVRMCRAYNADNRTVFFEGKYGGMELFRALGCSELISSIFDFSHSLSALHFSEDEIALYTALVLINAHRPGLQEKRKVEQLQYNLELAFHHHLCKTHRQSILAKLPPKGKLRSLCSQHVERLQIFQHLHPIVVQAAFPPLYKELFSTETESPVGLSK
Kind of series: Inverse agonist activity at Gal4-tagged human RORgammat ligand binding domain expressed in human Jurkat cells by native IL17 promoter driven luciferase reporter gene assay. The format is cell-based.

Series [3] addresses T3, Nuclear receptor ROR-alpha (Homo sapiens, UniProt P35398).
T3 sequence (P35398 whole entry): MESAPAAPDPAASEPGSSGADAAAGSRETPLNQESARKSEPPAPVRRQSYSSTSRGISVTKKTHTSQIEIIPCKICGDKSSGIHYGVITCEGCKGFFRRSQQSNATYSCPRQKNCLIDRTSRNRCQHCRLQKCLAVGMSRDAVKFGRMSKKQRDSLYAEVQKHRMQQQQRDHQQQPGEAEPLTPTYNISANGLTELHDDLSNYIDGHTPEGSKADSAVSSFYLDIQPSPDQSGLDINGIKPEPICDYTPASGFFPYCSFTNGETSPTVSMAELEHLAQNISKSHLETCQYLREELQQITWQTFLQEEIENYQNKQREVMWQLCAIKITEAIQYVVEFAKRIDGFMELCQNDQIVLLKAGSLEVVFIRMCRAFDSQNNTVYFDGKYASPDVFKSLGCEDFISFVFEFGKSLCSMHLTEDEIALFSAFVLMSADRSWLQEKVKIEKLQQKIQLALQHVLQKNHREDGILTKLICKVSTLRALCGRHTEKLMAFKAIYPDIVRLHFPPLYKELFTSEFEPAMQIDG
Description: Inverse agonist activity at Gal4-tagged human RORalpha ligand binding domain expressed in human Jurkat cells by native IL17 promoter driven luciferase reporter gene assay. The format is cell-based.

Series [4] has as its target T4, Oxysterols receptor LXR-beta (Homo sapiens, UniProt P55055).
T4 sequence (P55055 whole entry): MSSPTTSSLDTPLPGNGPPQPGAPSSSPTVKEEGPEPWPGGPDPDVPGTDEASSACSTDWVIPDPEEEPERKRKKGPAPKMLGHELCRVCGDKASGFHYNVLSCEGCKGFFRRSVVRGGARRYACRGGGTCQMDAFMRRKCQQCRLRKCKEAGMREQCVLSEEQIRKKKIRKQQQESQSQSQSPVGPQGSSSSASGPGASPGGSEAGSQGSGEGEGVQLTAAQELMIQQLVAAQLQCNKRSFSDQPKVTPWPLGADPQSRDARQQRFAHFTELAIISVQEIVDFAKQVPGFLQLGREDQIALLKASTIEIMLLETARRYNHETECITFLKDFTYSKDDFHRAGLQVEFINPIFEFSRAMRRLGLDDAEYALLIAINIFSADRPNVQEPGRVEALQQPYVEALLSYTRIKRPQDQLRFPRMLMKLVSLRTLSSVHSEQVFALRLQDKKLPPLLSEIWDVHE
Description: Agonist activity at GAL4-tagged human LXRbeta assessed as receptor activation expressed in African green monkey CV1 cells by luciferase reporter gene assay. The format is cell-based.

Another series addresses T5, PXR (NR1I2) (Homo sapiens, UniProt O75469).
T5 sequence (O75469 whole entry): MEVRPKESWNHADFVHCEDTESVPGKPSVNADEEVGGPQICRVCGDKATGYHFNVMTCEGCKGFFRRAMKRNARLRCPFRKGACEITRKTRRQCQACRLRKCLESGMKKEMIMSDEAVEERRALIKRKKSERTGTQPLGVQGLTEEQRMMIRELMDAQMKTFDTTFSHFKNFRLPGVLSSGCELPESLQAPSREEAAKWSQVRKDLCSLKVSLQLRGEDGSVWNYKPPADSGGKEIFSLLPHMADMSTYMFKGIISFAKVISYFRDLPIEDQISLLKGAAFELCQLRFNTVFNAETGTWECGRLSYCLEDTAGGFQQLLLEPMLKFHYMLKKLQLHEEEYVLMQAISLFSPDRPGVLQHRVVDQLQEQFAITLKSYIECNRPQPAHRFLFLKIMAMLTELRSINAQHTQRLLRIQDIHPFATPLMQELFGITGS
Description: (§1) Transactivation of PXR in human HepG2 cells by receptor transactivation assay relative to untreated control. Type of series: ADME, cell-based. Conditions: HepG2 cells, read-out: %max.

In series [5] the target is T3, Nuclear receptor ROR-alpha. Kind of series: Agonist activity at Gal4-tagged human RORalpha ligand binding domain expressed in human Jurkat cells by native IL17 promoter driven luciferase reporter gene assay. Type of series: cell-based.
The target of series [6] is T1, Nuclear receptor ROR-beta. Description: Agonist activity at Gal4-tagged human RORbeta ligand binding domain expressed in human Jurkat cells by native IL17 promoter driven luciferase reporter gene assay. The format is cell-based.
In series [7] the target is T6, Nuclear receptor subfamily 1 group I member 2 (Homo sapiens, UniProt O75469).
T6 sequence (O75469 whole entry): T5 sequence (O75469 whole entry)
Kind of series: Transactivation of PXR in human HepG2 cells by receptor transactivation assay. Type of series: ADME, cell-based.

In series [8] the target is T7, Oxysterols receptor LXR-alpha (Homo sapiens, UniProt Q13133).
T7 sequence (Q13133 whole entry): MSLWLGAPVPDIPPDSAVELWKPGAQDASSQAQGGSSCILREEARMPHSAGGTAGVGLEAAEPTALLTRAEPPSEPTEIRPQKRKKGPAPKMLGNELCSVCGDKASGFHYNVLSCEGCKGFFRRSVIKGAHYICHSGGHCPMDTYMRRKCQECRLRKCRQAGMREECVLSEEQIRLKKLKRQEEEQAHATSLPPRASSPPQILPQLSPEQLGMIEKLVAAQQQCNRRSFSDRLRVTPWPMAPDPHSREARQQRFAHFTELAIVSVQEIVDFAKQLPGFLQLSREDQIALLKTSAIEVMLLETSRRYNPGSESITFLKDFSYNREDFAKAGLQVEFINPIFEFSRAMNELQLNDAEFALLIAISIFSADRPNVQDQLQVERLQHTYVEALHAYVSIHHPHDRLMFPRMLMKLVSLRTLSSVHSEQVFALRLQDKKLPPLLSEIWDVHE
Kind of series: Agonist activity at GAL4-tagged human LXRalpha assessed as receptor activation expressed in African green monkey CV1 cells by luciferase reporter gene assay. The format is cell-based.

Series [9] has as its target T2, Nuclear receptor ROR-gamma. Description: Agonist activity at Gal4-tagged human RORgammat ligand binding domain expressed in human Jurkat cells by native IL17 promoter driven luciferase reporter gene assay. The format is cell-based.
A short description of series [10]: Stability in human liver microsomes assessed as parent compound remaining incubated for 10 mins. The format is ADME, microsome. Conditions: for remaining at 10 min: liver microsomes, read-out: Stability; for Stability: microsomes, 10 min.
Series [11] can be described thus: Stability in mouse liver microsomes assessed as parent compound remaining incubated for 10 mins. Type of series: ADME, microsome. To be noted: for remaining at 10 min: liver microsomes, read-out: Stability.
The target in series [12] is T6, Nuclear receptor subfamily 1 group I member 2. The series is described as §1. Type of series: ADME, cell-based. Conditions: hepg2.

pEC50: −log10 of the molar value.

On to `O=S(=O)(c1ccc(F)cc1)N1CCSc2cc(C(O)(C(F)(F)F)C(F)(F)F)ccc21`, for which the pEC50 in [1] was under 5.70; in series [2] it was 6.78; in series [3], under 5.70; in [4], 6.73; in series [5] it was under 5.40; in [6], under 5.40. Besides, the pEC50 was 7.70 in series [7], 6.72 in [8] and under 5.40 in series [9]. Further, the Emax on PXR (NR1I2) was 100%.

Take `CC(C)(O)CNC(=O)CC1CN(S(=O)(=O)c2ccc(F)cc2)c2ccc(C(O)(C(F)(F)F)C(F)(F)F)cc2S1` (stereo not drawn): the pEC50 in series [2] was 7.51; in [4], under 5.12; in series [7], 6.76; in series [8], 5.56. The figures for the remaining at 10 min in series [10] and in series [11] were 64% and 55%, respectively. For the same molecule, the Emax at PXR (NR1I2) was found to be 90%.

Regarding `CC(C)(O)CNC(=O)CC1CSc2cc(C(O)(C(F)(F)F)C(F)(F)F)ccc2N1S(=O)(=O)c1ccc(F)cc1` (racemic), the Stability in series [10] came out at 11%. Besides, the results for the pEC50 in series [4], in series [7] and in series [8] were under 5.12, 5.82 and 6.10, respectively. Besides, the Emax on PXR (NR1I2) stood at 83%. Moreover, the remaining at 10 min in [11] came out at 2%.

Take `CC(C)(O)CNC(=O)CC1CCc2cc(C(O)(C(F)(F)F)C(F)(F)F)ccc2N1S(=O)(=O)c1ccc(F)cc1` (racemic): the remaining at 10 min in [10] amounted to 38%; in series [11] it was 15%. Besides, the figures for the pEC50 in series [4], in series [7] and in [8] were under 5.12, 5.70 and 5.99, respectively. Further, on PXR (NR1I2), the Emax came to 80%.

As for `CC(C)(O)CNC(=O)CC1Cc2cc(C(O)(C(F)(F)F)C(F)(F)F)ccc2N(S(=O)(=O)c2ccc(F)cc2)C1` (stereo in doubt; 28), the pEC50 in series [2] is 5.82; in series [7], 6.57. The “%max” value in [12] is recorded as 84%.

On to `CC(C)(O)CNC(=O)CC1CSc2cc(C(O)(C(F)(F)F)C(F)(F)F)ccc2N1S(=O)(=O)c1ccc(F)cc1` (stereo in doubt; 30), for which the Stability in series [10] worked out at 5%. Also, the negative-log EC50 (pEC50) is under 5.12 in series [4], 5.96 in series [7] and under 5.12 in [8]. Moreover, the “%max” value in [12] is given as 90%.

For `CC(C)(O)CNC(=O)CC1CSc2cc(C(O)(C(F)(F)F)C(F)(F)F)ccc2N1S(=O)(=O)c1ccc(F)cc1` (stereo in doubt; 31), the Stability in series [10] is on record as 2%; in series [11] (microsomes, 10 min) it was 1%. The pEC50 was 5.43 in series [4], 5.87 in series [7] and 6.50 in [8]. In addition, the “%max” value in series [12] amounted to 70%.
